We go through six molecules from patent US8871946B2, “Benzimidazole-4-carboxamide derivatives, their preparation methods, pharmaceutical compositions and their uses” (Zhejiang Medicine Co., Ltd. Xinchang Pharmaceutical Factory, priority 2009, dated 2014).

Converted amounts (≈) assume the structure as drawn.

As usually defined, the IC50 is the concentration that inhibits the measured activity by half.

The test system of the first experiment is coxsackie B3 viruses. The experiment in a line: Measures of anti-coxsackie B3 viruses activity of the compounds in Vero cells. Format: cell-based. As to conditions: Enterovirus B, B3, half inhibitory concentration for viruses, read-out: IC50. From the text:
Measures of Anti-Coxsackie B3 Viruses Activity of the Compounds The products are applied for measures of antivirus properties of Vero cells. Refer to the results of Table 3: datum of anti-coxsackie B3 viruses activities of some compounds. […] IC50 indicates half inhibitory concentration for viruses. RBV indicates triazole nucleoside, is also called ribavirin, virazole.
For `NC(=O)c1ncn([C@@H]2O[C@H](CO)[C@@H](O)[C@H]2O)n1` [RBV, ribavirin, reference compound], the IC50 was 354 µg/mL (≈ 1450 µM).

Still in this experiment, the particulars now being: half inhibitory concentration for viruses.
`COc1cccc(-c2nc3c(C(=O)NC(CO)C(O)c4ccc([N+](=O)[O-])cc4)cccc3[nH]2)n1` (stereo not drawn) [(L)-2-(6-methoxypyridyl)-1H-benzimidazole-4-[N-(1-hydroxymethyl-2-p-nitrophenylhydroxyethyl)]amide]: the “IC50” value was found to be 11.2 µg/mL (≈ 24.2 µM).
For the molecule `Cn1cccc1-c1nc2c(C(=O)NC(CO)C(O)c3ccc([N+](=O)[O-])cc3)cccc2[nH]1` (stereo not drawn) [(L)-2-(N-methyl-2-pyrrolyl)-1H-benzimidazole-4-[N-(1-hydroxymethyl-2-p-nitrophenylhydroxyethyl)]amide], the “IC50” value was determined as 11.1 µg/mL (≈ 25.5 µM).
The same measure, in the same setting: then `O=C(NC(CO)C(O)c1ccccc1[N+](=O)[O-])c1cccc2[nH]c(N3CCNCC3)nc12` (stereo not drawn) [(L)-2-N-piperazinyl-1H-benzimidazole-4-[N-(1-hydroxymethyl-2-o-nitrophenylhydroxyethyl)]amide], with 4.2 µg/mL (≈ 9.54 µM); and `O=C(NC(CO)C(O)c1ccc([N+](=O)[O-])cc1)c1cccc2[nH]c(-c3nccs3)nc12` (stereo not drawn) [(L)-2-thiazolyl-1H-benzimidazole-4-[N-(1-hydroxymethyl-2-p-nitrophenylhydroxyethyl)]amide], with 11.2 µg/mL (≈ 25.5 µM).
Same read-out and setting: the value for `O=C(NC(CO)C(O)c1ccc([N+](=O)[O-])cc1)c1cccc2[nH]c(-c3c[nH]c4ccccc34)nc12` [(L-)2-(3-indolyl)-1H-benzimidazole-4-[N-(1-hydroxymethyl-2-p-nitrophenylhydroxyethyl)]amide] was 9.6 µg/mL (≈ 20.4 µM).
